The values below come from PubChem BioAssay (NCI).

Among the test systems are K-562 leukemia; SF-295 CNS; NCI-H460 lung; OVCAR-3 ovarian; HL-60(TB) leukemia; OVCAR-8 ovarian; NCI-H522 lung; MCF7 breast; A498 renal; LOX IMVI melanoma.
Experiment in all cases: NCI anticancer screen, dose series, 48 h

SMILES strings stand for the structures.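 Each compound was tested at five concentrations against cells in 96-well plates for 48 hours. GI50 marks 50% less growth. TGI: concentration producing complete growth inhibition.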

With `O=C(Nc1ccc(F)cc1)Nc1ccc(Cl)c([N+](=O)[O-])c1`, the GI50 in the assay on K-562 leukemia is 3.2 µM; with SF-295 CNS, 2.27 µM; with NCI-H460 lung it was 2.72 µM; with OVCAR-3 ovarian it was 3.81 µM; in the assay with HL-60(TB) leukemia, 2.5 µM; in the assay with OVCAR-8 ovarian it was 2.98 µM. Besides, the GI50 in the assay on NCI-H522 lung was 2.44 µM; with MCF7 breast it was 2.66 µM; in the assay on A498 renal, 1.8 µM; with LOX IMVI melanoma, 3.51 µM. Besides, the TGI in the assay with K-562 leukemia was above 100 µM; with SF-295 CNS, 7.93 µM; with NCI-H460 lung it was 11.5 µM; in the assay with OVCAR-3 ovarian, 19.1 µM; in the assay with HL-60(TB) leukemia, 8.56 µM; in the assay on OVCAR-8 ovarian, 15.1 µM. The TGI with NCI-H522 lung was 10.8 µM; with MCF7 breast, 11.9 µM; in the assay on A498 renal it was 5.78 µM; in the assay on LOX IMVI melanoma, 12.2 µM.

For the molecule `C=C(C)C(OC)C(O)CC1(C)CC(O)CC(C)(C2CCC3OC(C4(C)CCC(Br)C(C)(C)O4)CCC3(C)O2)O1` (stereo not drawn), the GI50 with K-562 leukemia was 20.7 µM; in the assay with SF-295 CNS, 22.7 µM; in the assay on NCI-H460 lung it was 17.7 µM; in the assay on OVCAR-3 ovarian, 22.8 µM; with HL-60(TB) leukemia, 17.1 µM; in the assay on OVCAR-8 ovarian it was 21.1 µM. In addition, the GI50 was 18.2 µM with NCI-H522 lung, 19.9 µM in the assay on MCF7 breast, 16.5 µM in the assay with A498 renal and 26.1 µM in the assay on LOX IMVI melanoma. Also, the TGI is above 68.5 µM in the assay with K-562 leukemia; 62.2 µM in the assay on SF-295 CNS; 39.3 µM in the assay with NCI-H460 lung; 58.5 µM in the assay with OVCAR-3 ovarian; above 56.7 µM in the assay with HL-60(TB) leukemia; 50.2 µM in the assay with OVCAR-8 ovarian. The TGI in the assay with NCI-H522 lung is 55.8 µM; with MCF7 breast it was 42.3 µM; in the assay with A498 renal, 31.1 µM; in the assay with LOX IMVI melanoma, above 58.9 µM.

Turning to `COc1cc2c(cc1OCCCCN1CCN(CC(=O)Nc3ccc(Cl)cc3C(=O)c3ccccc3Cl)CC1)N=CC1CCCN1C2=O` (stereo not drawn), the GI50 in the assay with K-562 leukemia is 0.208 µM; in the assay on SF-295 CNS, 0.237 µM; in the assay with NCI-H460 lung, 0.228 µM; with OVCAR-3 ovarian, 0.197 µM; with HL-60(TB) leukemia it was 0.273 µM; in the assay on OVCAR-8 ovarian, 0.327 µM. For the same molecule, the GI50 is 0.107 µM with NCI-H522 lung, 0.167 µM in the assay with MCF7 breast, 0.194 µM in the assay with A498 renal and 0.203 µM in the assay on LOX IMVI melanoma. In addition, the TGI is 2.82 µM in the assay with K-562 leukemia; 0.509 µM in the assay with SF-295 CNS; 0.517 µM in the assay on NCI-H460 lung; 0.435 µM in the assay on OVCAR-3 ovarian; 1.09 µM in the assay with OVCAR-8 ovarian; 0.316 µM in the assay with NCI-H522 lung. Also, the TGI in the assay on MCF7 breast was found to be 0.567 µM; in the assay on A498 renal, 0.364 µM; in the assay with LOX IMVI melanoma it was 0.442 µM.

Consider `COc1cc(/C=N\NC(=O)CN2CCN(c3cc4c(cc3F)c(=O)c(C(=O)N/N=C/c3cc(OC)c(OC)c(OC)c3)cn4C3CC3)CC2)cc(OC)c1OC`, for which the GI50 in the assay with K-562 leukemia is 0.363 µM; in the assay on SF-295 CNS, 0.685 µM; with NCI-H460 lung, 0.251 µM; in the assay with OVCAR-3 ovarian, 0.214 µM; in the assay on HL-60(TB) leukemia it was 0.32 µM; with OVCAR-8 ovarian, 0.577 µM. Moreover, the GI50 in the assay with NCI-H522 lung was 0.249 µM; in the assay on MCF7 breast, 0.362 µM; in the assay on A498 renal, 0.299 µM; in the assay on LOX IMVI melanoma, 0.176 µM. In addition, the TGI was above 100 µM with K-562 leukemia; 5.58 µM in the assay with SF-295 CNS; 0.636 µM in the assay with NCI-H460 lung; 0.458 µM with OVCAR-3 ovarian; above 31.7 µM in the assay with HL-60(TB) leukemia; above 88.5 µM with OVCAR-8 ovarian. Besides, the TGI was above 100 µM in the assay with MCF7 breast, 23.7 µM with A498 renal and 0.343 µM in the assay with LOX IMVI melanoma.

As for `Fc1[nH]nc2ccc([C@@H]3Nc4ccc5[nH]ncc5c4[C@H]4C5CCC(C5)[C@@H]34)cc12` (stereo partly drawn), the GI50 with K-562 leukemia is 0.324 µM; in the assay on SF-295 CNS, 0.414 µM; in the assay with NCI-H460 lung, 0.804 µM; with OVCAR-3 ovarian, 0.39 µM; in the assay on HL-60(TB) leukemia it was 0.348 µM; in the assay on OVCAR-8 ovarian it was 2.46 µM. In addition, the GI50 in the assay with NCI-H522 lung was 0.432 µM; in the assay with MCF7 breast it was 0.387 µM; in the assay with A498 renal, 0.536 µM; with LOX IMVI melanoma, 0.768 µM. Also, the TGI in the assay with K-562 leukemia came out at 13.9 µM; with SF-295 CNS it was 10.6 µM; in the assay on NCI-H460 lung, 7.26 µM; in the assay on OVCAR-3 ovarian, 2.97 µM; with HL-60(TB) leukemia, 1.69 µM; in the assay on OVCAR-8 ovarian, 16.4 µM. Besides, the TGI in the assay with NCI-H522 lung is 9.27 µM; in the assay with MCF7 breast, 12.6 µM; in the assay with A498 renal, 3.91 µM; in the assay on LOX IMVI melanoma, 14 µM.

On to `Nc1ccccc1C#C/C=C\C#Cc1ccccc1OC(F)(F)F`, for which the GI50 in the assay on K-562 leukemia is 2.31 µM; in the assay on SF-295 CNS, 3.03 µM; in the assay with NCI-H460 lung, 3.78 µM; in the assay with OVCAR-3 ovarian, 3.49 µM; in the assay with HL-60(TB) leukemia it was 2.08 µM; with OVCAR-8 ovarian it was 6.7 µM. Further, the GI50 in the assay with NCI-H522 lung is 3.47 µM; in the assay on MCF7 breast, 3.67 µM; in the assay on A498 renal, 3.93 µM; with LOX IMVI melanoma, 7.85 µM. Moreover, the TGI in the assay with K-562 leukemia is above 100 µM; with SF-295 CNS, 11.4 µM; in the assay with NCI-H460 lung it was 17.3 µM; with OVCAR-3 ovarian, 20.5 µM; in the assay with HL-60(TB) leukemia it was 11.1 µM; with OVCAR-8 ovarian it was 47.2 µM. The TGI is 14 µM with NCI-H522 lung, above 100 µM in the assay with MCF7 breast, 14 µM in the assay with A498 renal and 27 µM with LOX IMVI melanoma.

As to `CCOC(=O)Cn1c(C(F)(F)F)nc2nc(Cl)c(Cl)nc21`, the TGI in the assay on K-562 leukemia was above 100 µM; with SF-295 CNS, above 100 µM; in the assay on NCI-H460 lung it was above 100 µM; with OVCAR-3 ovarian it was 54.2 µM; in the assay with HL-60(TB) leukemia, 42.9 µM; in the assay on OVCAR-8 ovarian, above 100 µM. The TGI in the assay on NCI-H522 lung is 58.2 µM; with MCF7 breast, above 87.4 µM; with A498 renal, above 74 µM; with LOX IMVI melanoma it was above 100 µM.

On to `Cc1nc2sccn2c1-c1csc(Nc2ccccc2Cl)n1`, for which the GI50 with K-562 leukemia is 0.586 µM; with SF-295 CNS, 1.55 µM; in the assay with NCI-H460 lung, 3.19 µM; in the assay with OVCAR-3 ovarian, 3.18 µM; in the assay with HL-60(TB) leukemia, 3 µM; in the assay on OVCAR-8 ovarian, 6.05 µM. In addition, the GI50 in the assay on NCI-H522 lung is 2.08 µM; in the assay with MCF7 breast, 2.81 µM; in the assay with A498 renal, 1.24 µM; with LOX IMVI melanoma, 4.4 µM. Moreover, the TGI in the assay on K-562 leukemia turned out to be 17.1 µM; in the assay on SF-295 CNS it was 5.98 µM; in the assay on NCI-H460 lung, 15.8 µM; in the assay on OVCAR-3 ovarian, 19.1 µM; in the assay with HL-60(TB) leukemia, 29.2 µM; in the assay with OVCAR-8 ovarian, 45.2 µM. Besides, the TGI in the assay with NCI-H522 lung is 15.7 µM; with MCF7 breast it was 23 µM; in the assay on A498 renal, 12.7 µM; in the assay on LOX IMVI melanoma it was 21.6 µM.
